Data: patent publication US5985871A, “Benzoxazine compounds for enhancing synaptic response” (Cortex Pharmaceuticals, Inc., priority 1997, dated 1999)

Experiments:
AMPA receptors = test: field EPSP response in rat hippocampal slices; type: cell-based; details: for EPSP response, in words: comment on Table 1
Protocol: Hippocampal tissue slices were perfused with artificial cerebrospinal fluid containing increasing concentrations of test compound at 15-30 minute intervals separated by perfusion with ACSF without the test compound, and the percent increases in EPSP amplitude and half-width before and after compound perfusion were determined.
The physiological effects of compounds in accordance with the invention can be tested in vitro with slices of rat hippocampus according to the following procedure. Excitatory responses (field EPSPs) are measured in hippocampal slices, which are maintained in a recording chamber continuously perfused with artificial cerebrospinal fluid (ACSF). During a 15-30 minute interval, the perfusion medium is switched to one containing various concentrations of the test compounds. Responses collected immediately before and at the end of drug perfusion were superimposed in order to calculate both the percent increase in EPSP amplitude and percent increase in the width of the response at one-half the peak height (half-width). An increase in either measure, that is, of the amplitude or half-width, can be used as an indicator of beneficial therapeutic activity.
To conduct these tests, the hippocampus was removed from anesthetized, 2 month old Sprague-Dawley rats and tissue slices (400 micrometers thick) were prepared and maintained in an interface chamber at 35° C. using conventional techniques [see, for example, Dunwiddie and Lynch, J. Physiol. […] A bipolar nichrome stimulating electrode was positioned in the dendritic layer (stratum radiatum) of the hippocampal subfield CA1 close to the border of subfield CA3.
Current pulses (0.1 msec) through the stimulating electrode activate a population of the Schaffer-commissural (SC) fibers, which arise from neurons in the subdivision CA3 and terminate in synapses on the dendrites of CA1 neurons. Activation of these synapses causes them to release the transmitter glutamate. Glutamate binds to the post-synaptic AMPA receptors which then transiently open an associated ion channel and permit a sodium current to enter the postsynaptic cell. This current results in a voltage in the extracellular space (the field excitatory post-synaptic potential or field "EPSP") which is recorded by a high impedance recording electrode positioned in the middle of the stratum radiatum of CA1.
For the experiments summarized in Table 1, the intensity of the stimulation current was adjusted to produce half-maximal EPSPs (typically about 1.5-2.0 mV). Paired stimulation pulses were given every 40 sec with an interpulse interval of 200 msec (see below). The field EPSPs of the second response were digitized and analyzed to determine amplitude, half-width, and response area. If the responses were stable for 15-30 minutes (baseline), test compounds were added to the perfusion lines for a period of about 20 minutes. The perfusion was then changed back to regular ACSF.
Paired-pulse stimulation was used because stimulation of the SC fibers, in part, activates interneurons that generate an inhibitory postsynaptic potential (IPSP) in the pyramidal cells of CA1. This feed forward IPSP typically sets in after the EPSP reaches its peak. It accelerates the repolarization and shortens the decay phase of the EPSP, and thus could partially mask the effects of the test compounds. One of the relevant features of the feed-forward IPSP is that it can not be reactivated for several hundred milliseconds following a stimulation pulse. This phenomenon can be employed to advantage to eliminate IPSP by delivering paired pulses separated by 200 milliseconds and using the second ("primed") response for data analysis.

rats = test: 8-arm radial maze memory test; type: in vivo, rat; details: for Maze MED (Minimum Effective Dose) / minimal effective dose: threshold dose for enhancing memory in rats, 8-arm radial maze; for minimal effective dose: Rattus norvegicus, read-out: Maze MED (Minimum Effective Dose)
Protocol: The right bar of each pair represents the results for the same animals administered vehicle alone on alternate days of testing.
All of the data in FIG. 1 were obtained using the same group of ten rats. […] In other words, vehicle alone was administered to the group on days 1, 3 and 5, and compound at a selected dosage was administered on days 2 and 4. […] Error bars indicate the standard error of the mean (SEM). The asterisks (*) in the figure indicate data wherein p<0.05 by the paired t test.

brain AMPA receptors = details: metabolite of aniracetam; cited from earlier work
[1] = peripheral administration in humans; Guenzi and Zanetti 1990; cited from earlier work
[2] = compound concentration 30 μM, rat hippocampal slice, field CA1
[3] = compound concentration 100 μM, rat hippocampal slice, field CA1

O=C1c2cc3c(cc2OC2OCCN12)OCO3 (single isomer, unassigned) [Column Fraction 2]
EPSP Response (percent increase in amplitude of the EPSP response) (AMPA receptors; compound concentration 50 μM, resolved enantiomers of compound 1, listed as second-eluting enantiomer): does not detectably change | MED of less active enantiomer relative to active enantiomer (rats; enantiomers of compound 1, maze test): 50 fold | Maze MED (Minimum Effective Dose) (rats; listed as less active enantiomer): 0.5 mg/kg

O=C1c2cc3c(cc2OC2OCCCN12)OCO3 (centres unmarked) [Compound 7, 8,9-Dihydro-5aH, 7H, 10H-1,3-dioxolo[4,5-g][1,3]oxazino[2,3-b][1,3]benzoxazin-11-one]
EPSP Response (percent increase in amplitude of the EPSP response) (AMPA receptors; [2]): 15%

O=C1c2cc3c(cc2OC2SCCN12)OCO3 (centres unmarked) [Compound 4, 7,8-Dihydro-5aH, 10H-1,3-dioxolo[4,5-g]thiazolo[2,3-b][1,3]benzoxazin-10-one]
EPSP response, in words (AMPA receptors): About the same activity | EPSP Response (percent increase in amplitude of the EPSP response) (AMPA receptors; [2]): 20%

O=C1c2cc3c(cc2OC2OCCN12)OCO3 (racemic) [Compound 1, 7,8-Dihydro-5aH, 10H-1,3-dioxolo[4,5-g]oxazolo[2,3-b][1,3]benzoxazin-10-one]
EPSP Response (percent increase in amplitude of the EPSP response) (AMPA receptors; [2]): 34% | EPSP Response (percent increase in amplitude of the EPSP response) (AMPA receptors; compound concentration 50 μM, resolved enantiomers of compound 1): 80% | average total number of errors (rats; FIG. 1, 0.03, 0.1 and 0.5 mg/kg versus vehicle, ten rats): significant, dose-dependent reduction | average number of correct choices before the first error (rats; FIG. 1, 0.03, 0.1 and 0.5 mg/kg versus vehicle, ten rats, retention phase): significant, dose-dependent increase | Maze MED (Minimum Effective Dose) (rats): 0.05 mg/kg

O=C1c2cc3c(cc2OC2OCCN12)OCCO3 (centres unmarked) [Compound 2, 8,9-Dihydro-6aH, 11H-1,4-dioxan[2,3-g]oxazolo[2,3-b][1,3]benzoxazin-11-one]
EPSP Response (percent increase in amplitude of the EPSP response) (AMPA receptors; compound concentration 5 μM, rat hippocampal slice, field CA1): 35% | minimal effective dose (rats): 0.01 mg/kg

CC1CN2C(=O)c3cc4c(cc3OC2O1)OCO4 (single isomer, unassigned) [Compound 5.2, 7,8-Dihydro-7-methyl-5aH, 10H-1,3-dioxolo[4,5-g]oxazolo[2,3-b][1,3]benzoxazin-10-one]
EPSP Response (percent increase in amplitude of the EPSP response) (AMPA receptors; [2]): 10%

COc1ccc(C(=O)NCCCC(=O)O)cc1 [anisoyl-GABA]
aniracetam-like effects (brain AMPA receptors): only weak aniracetam-like effects

O=C1c2cc3c(cc2OC2CCCN12)OCCO3 (centres unmarked) [Compound 2c, reference compound]
EPSP Response (percent increase in amplitude of the EPSP response) (AMPA receptors; compound concentration >30 μM, rat hippocampal slice, field CA1): 25% | minimal effective dose (rats): 0.1 mg/kg

CC12OCCN1C(=O)c1cc3c(cc1O2)OCO3 (centres unmarked) [Compound 8, 7,8-Dihydro-5a-methyl-10H-1,3-dioxolo[4,5-g]oxazolo[2,3-b][1,3]benzoxazin-10-one]
EPSP Response (percent increase in amplitude of the EPSP response) (AMPA receptors; [3]): 8%

O=C(NCCO)c1cc2c(cc1O)OCO2 [Compound 1i, 2-(2-Hydroxy-4,5-methylenedioxybenzamido)ethanol]
EPSP response, in words (AMPA receptors): increased EPSP response | EPSP Response (percent increase in amplitude of the EPSP response) (AMPA receptors; [3]): 8%

CC1CN2C(=O)c3cc4c(cc3OC2O1)OCO4 (single isomer, unassigned) [Compound 5.1, 7,8-Dihydro-7-methyl-5aH, 10H-1,3-dioxolo[4,5-g]oxazolo[2,3-b][1,3]benzoxazin-10-one]
EPSP Response (percent increase in amplitude of the EPSP response) (AMPA receptors; [2]): 14%

CC1COC2Oc3cc4c(cc3C(=O)N12)OCO4 (centres unmarked) [Compound 6, 7,8-Dihydro-8-methyl-5aH, 10H-1,3-dioxolo[4,5-g]oxazolo[2,3-b][1,3]benzoxazin-10-one]
EPSP Response (percent increase in amplitude of the EPSP response) (AMPA receptors; [3]): 10%

O=C1c2cc3c(cc2OC2OCCN12)OCO3 (single isomer, unassigned) [Column Fraction 1]
EPSP Response (percent increase in amplitude of the EPSP response) (AMPA receptors; compound concentration 50 μM, resolved enantiomers of compound 1, listed as first-eluting enantiomer): 80% | Maze MED (Minimum Effective Dose) (rats; listed as active enantiomer of compound 1): 0.01 mg/kg

O=C1c2cc3c(cc2OC2CCCCN12)OCO3 (centres unmarked) [Compound 7c, reference compound]
EPSP Response (percent increase in amplitude of the EPSP response) (AMPA receptors; compound concentration 300 μM, rat hippocampal slice, field CA1): 25%

O=C1c2cc3c(cc2OC2CCCN12)OCO3 (centres unmarked) [Compound 1c, reference compound]
EPSP Response (percent increase in amplitude of the EPSP response) (AMPA receptors; [3]): 25% | minimal effective dose (rats): 1 mg/kg

CC1(C)Oc2cc3c(cc2O1)C(=O)N1CCOC1O3 (centres unmarked) [Compound 3, 7,8-Dihydro-2,2-dimethyl-5aH, 10H-1,3-dioxolo[4,5-g]oxazolo[2,3-b][1,3]benzoxazin-10-one]
EPSP Response (percent increase in amplitude of the EPSP response) (AMPA receptors; [2]): 33%

COc1ccc(C(=O)N2CCCC2=O)cc1 [aniracetam, N-anisoyl-2-pyrrolidinone]
fraction of drug converted to anisoyl-GABA [1]: about 80%
